Columns and labels:
[1] = system: gallbladder bile leakage occlusion site; test: histopathology assessment (H&E) of the bile leakage occlusion site; format: in vivo, porcine; conditions: gallbladder fixed in formalin after occlusion with 2.5% w/v RADA16
Experimental: (§1) The objective of this study was to evaluate a self-assembling peptide solution (RADA16 in the form of PuraMatrix™ peptide hydrogel by 3-D Matrix, LTD.) as a bile leakage occlusion material in a porcine model. A histopathology assessment was also performed.
After bile leakage occlusion was achieved, the gallbladder was fixed in formalin and the H&E-stained pathological specimen was made at the bile leakage occlusion site.

[2] = system: bile leakage from punctured gall bladder; test: bile leakage occlusion in a porcine gall bladder needle puncture model; format: in vivo; conditions: 2.5% w/v RADA16
Experimental: as §1
On the day of testing, an animal was sedated and prepared for surgery. A bile leakage model was prepared by puncturing needle punctures, using a 20G injection needle in the gall bladder of the test subject, as shown in FIG. 1A.
Subsequent to applying the self-assembling peptide solution, a bile leakage occlusion was confirmed at 1 minute, 20 seconds, as shown in FIG. 1D.
It was determined that 0.5 mL of the peptide solution was used to achieve the bile leakage occlusion of the needle puncture in the gallbladder.

Arg-Ala-Asp-Ala-Arg-Ala-Asp-Ala-Arg-Ala-Asp-Ala-Arg-Ala-Asp-Ala (RADARADARADARADA) [RADA16, self-assembling peptide; 1 and 2.5 w/v percent aqueous solutions available as PuraMatrix peptide hydrogel by 3-D Matrix]
histopathological finding at bile leakage occlusion site (H&E-stained specimen, FIG. 2) [1]: occluded the bile leakage site | volume of peptide solution used to achieve the bile leakage occlusion of the needle puncture ([2]; 20G needle puncture in the gallbladder, porcine model): 0.5 mL | secondary bile leakage after excess hydrogel was irrigated from the site ([2]; checked at 3 minutes, porcine gall bladder puncture): absence of a secondary bile leakage was confirmed
